Active and inactive are the calls of the source. No cut-off for these calls is given here.
What was measured:
[1] = target: Cytochrome P450 2C9 (Homo sapiens, UniProt P11712); experiment: Inhibition of CYP2C9 (unknown origin) using […] as substrate; type: ADME
[2] = Antagonist activity at GR in monkey PBMC assessed as reduction in dexamethasone-induced FKBP5 gene expression incubated for 6 hrs by RT-qPCR method; type: cell-based; details: Macaca mulatta
[3] = Cmax in rat at 5 mg/kg, po; type: ADME, organism-based; set-up: dose 5 mg/kg, route oral; details: in vivo
[4] = target: T1, glucocorticoid receptor (GR) (Homo sapiens, UniProt P04150); experiment: Agonist activity at human GR expressed in CHO-K1 cells incubated for 20 hrs by luciferase reporter gene assay relative to dexamethasone; type: cell-based; details: CHO-K1 cells expressing human GR
T1 sequence (P04150 whole entry): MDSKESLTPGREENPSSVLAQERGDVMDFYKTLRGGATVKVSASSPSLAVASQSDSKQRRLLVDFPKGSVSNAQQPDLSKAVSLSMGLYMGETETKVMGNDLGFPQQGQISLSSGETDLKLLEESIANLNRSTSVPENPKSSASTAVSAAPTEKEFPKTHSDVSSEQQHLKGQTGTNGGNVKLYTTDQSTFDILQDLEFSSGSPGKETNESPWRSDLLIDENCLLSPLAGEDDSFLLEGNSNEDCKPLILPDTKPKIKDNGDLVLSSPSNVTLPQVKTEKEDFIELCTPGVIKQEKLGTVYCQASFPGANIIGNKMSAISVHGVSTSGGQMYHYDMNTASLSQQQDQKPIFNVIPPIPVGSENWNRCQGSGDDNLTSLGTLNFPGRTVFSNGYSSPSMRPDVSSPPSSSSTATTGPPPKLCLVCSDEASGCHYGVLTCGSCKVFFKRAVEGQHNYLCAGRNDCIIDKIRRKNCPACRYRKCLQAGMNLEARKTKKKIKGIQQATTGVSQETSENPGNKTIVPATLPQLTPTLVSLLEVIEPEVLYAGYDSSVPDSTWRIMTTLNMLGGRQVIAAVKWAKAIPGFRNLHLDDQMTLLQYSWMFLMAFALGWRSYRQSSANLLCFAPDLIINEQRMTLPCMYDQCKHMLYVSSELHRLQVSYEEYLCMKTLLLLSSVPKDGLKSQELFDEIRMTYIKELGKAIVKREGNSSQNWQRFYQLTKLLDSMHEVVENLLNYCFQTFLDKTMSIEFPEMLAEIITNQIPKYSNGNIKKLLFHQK

[5] = target: T2, Glucocorticoid receptor (Sus scrofa, UniProt Q9N1U3); experiment: Antagonist activity at GR in mini pig PBMC assessed as reduction in dexamethasone-induced GILZ gene expression incubated for 24 hrs by RT-qPCR method; type: cell-based
T2 sequence (Q9N1U3 whole entry): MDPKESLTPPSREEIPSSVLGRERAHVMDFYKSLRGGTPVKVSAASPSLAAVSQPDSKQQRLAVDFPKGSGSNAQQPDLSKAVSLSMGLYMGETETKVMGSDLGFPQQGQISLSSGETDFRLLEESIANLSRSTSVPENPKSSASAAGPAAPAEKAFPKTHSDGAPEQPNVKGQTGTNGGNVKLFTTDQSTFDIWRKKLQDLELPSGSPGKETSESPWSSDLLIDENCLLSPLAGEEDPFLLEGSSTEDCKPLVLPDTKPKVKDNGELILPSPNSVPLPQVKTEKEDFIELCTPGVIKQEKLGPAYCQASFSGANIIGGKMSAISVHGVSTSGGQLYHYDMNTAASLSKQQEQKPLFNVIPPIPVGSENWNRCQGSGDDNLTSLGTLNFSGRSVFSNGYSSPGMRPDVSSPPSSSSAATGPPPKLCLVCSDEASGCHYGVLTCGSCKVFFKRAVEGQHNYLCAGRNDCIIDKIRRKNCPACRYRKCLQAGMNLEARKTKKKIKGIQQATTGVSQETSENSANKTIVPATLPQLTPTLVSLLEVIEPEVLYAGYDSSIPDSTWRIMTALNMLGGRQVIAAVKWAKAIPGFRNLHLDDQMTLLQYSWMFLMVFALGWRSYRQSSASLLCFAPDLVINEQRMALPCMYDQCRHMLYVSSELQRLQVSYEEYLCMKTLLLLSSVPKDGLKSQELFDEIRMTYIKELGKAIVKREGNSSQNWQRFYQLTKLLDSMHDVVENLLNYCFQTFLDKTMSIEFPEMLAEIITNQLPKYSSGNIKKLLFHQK

[6] = target: T3, Glucocorticoid receptor (Canis lupus familiaris, UniProt A0A8C0QLS2); experiment: Antagonist activity at GR in dog PBMC assessed as reduction in dexamethasone-induced GILZ gene expression incubated for 6 hrs by RT-qPCR method; type: cell-based
T3 sequence (A0A8C0QLS2 whole entry): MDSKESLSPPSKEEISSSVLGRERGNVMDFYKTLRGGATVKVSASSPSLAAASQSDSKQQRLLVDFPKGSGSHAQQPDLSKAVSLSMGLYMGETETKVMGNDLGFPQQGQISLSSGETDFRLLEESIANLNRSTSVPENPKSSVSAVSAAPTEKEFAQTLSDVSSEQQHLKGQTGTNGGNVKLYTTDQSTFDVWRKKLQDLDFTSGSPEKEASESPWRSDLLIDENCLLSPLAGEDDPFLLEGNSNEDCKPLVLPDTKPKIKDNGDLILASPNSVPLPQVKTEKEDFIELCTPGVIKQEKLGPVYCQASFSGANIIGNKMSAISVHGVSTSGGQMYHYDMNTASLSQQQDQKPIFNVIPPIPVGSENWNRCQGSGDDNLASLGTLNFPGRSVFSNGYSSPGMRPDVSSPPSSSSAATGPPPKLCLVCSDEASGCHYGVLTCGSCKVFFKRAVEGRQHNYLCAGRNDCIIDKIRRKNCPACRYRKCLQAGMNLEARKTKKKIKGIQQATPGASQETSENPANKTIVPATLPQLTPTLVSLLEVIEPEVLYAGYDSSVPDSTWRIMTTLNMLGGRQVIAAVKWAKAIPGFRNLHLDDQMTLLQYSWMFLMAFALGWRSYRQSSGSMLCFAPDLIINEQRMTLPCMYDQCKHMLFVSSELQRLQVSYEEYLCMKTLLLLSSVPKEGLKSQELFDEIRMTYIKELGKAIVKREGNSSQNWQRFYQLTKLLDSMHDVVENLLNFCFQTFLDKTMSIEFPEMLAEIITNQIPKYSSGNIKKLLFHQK

[7] = target: T3, Glucocorticoid receptor; experiment: Antagonist activity at GR in dog PBMC assessed as reduction in dexamethasone-induced FKBP5 gene expression incubated for 6 hrs by RT-qPCR method; type: cell-based
[8] = AUC in rat at 5 mg/kg, po; type: ADME, organism-based; details: in vivo
[9] = Volume of distribution at steady state in rat at 0.5 mg/kg, iv; type: ADME, organism-based; details: in vivo, read-out: Vdss
[10] = Clearance in rat at 0.5 mg/kg, iv; type: ADME, organism-based; details: in vivo
[11] = Oral bioavailability in rat at 5 mg/kg; type: ADME, organism-based; details: in vivo
[12] = Half life in rat at 0.5 mg/kg, iv; type: ADME, organism-based; details: in vivo
[13] = Antagonist activity at GR in monkey PBMC assessed as reduction in dexamethasone-induced GILZ gene expression incubated for 6 hrs by RT-qPCR method; type: cell-based; details: Macaca mulatta
[14] = target: T2, Glucocorticoid receptor; experiment: Antagonist activity at GR in mini pig PBMC assessed as reduction in dexamethasone-induced FKBP5 gene expression incubated for 24 hrs by RT-qPCR method; type: cell-based
[15] = target: T4, Cytochrome P450 2C8 (Homo sapiens, UniProt P10632); experiment: Inhibition of CYP2C8 (unknown origin) using […] as substrate; type: ADME
T4 sequence (P10632 whole entry): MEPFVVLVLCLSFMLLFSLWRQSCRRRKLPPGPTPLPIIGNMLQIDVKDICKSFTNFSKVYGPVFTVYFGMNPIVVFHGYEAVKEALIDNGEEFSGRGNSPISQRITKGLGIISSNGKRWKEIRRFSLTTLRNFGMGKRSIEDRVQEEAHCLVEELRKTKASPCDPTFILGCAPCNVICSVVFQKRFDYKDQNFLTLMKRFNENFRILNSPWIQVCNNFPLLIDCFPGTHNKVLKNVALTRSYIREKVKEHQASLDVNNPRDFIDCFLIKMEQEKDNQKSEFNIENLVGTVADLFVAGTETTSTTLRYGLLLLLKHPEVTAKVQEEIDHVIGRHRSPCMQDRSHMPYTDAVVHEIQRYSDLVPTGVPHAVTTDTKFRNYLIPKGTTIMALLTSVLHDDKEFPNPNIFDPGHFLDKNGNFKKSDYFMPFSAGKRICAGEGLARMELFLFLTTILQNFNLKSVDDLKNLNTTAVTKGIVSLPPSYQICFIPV

[16] = test system: OVCAR-5; details: Homo sapiens, 100 mg/kg
[17] = target: T5, Glucocorticoid receptor (Homo sapiens, UniProt P04150); experiment: Antagonist activity at human GR expressed in CHO-K1 cells assessed as reduction in dexamethasone-induced response incubated for 20 hrs by luciferase reporter gene assay; type: cell-based
T5 sequence (P04150 whole entry): T1 sequence (P04150 whole entry)

[18] = target: T6, androgen receptor (AR) (Homo sapiens, UniProt P10275); experiment: Agonist activity at AR (unknown origin) expressed in human LNCaP cells incubated for 20 hrs by luciferase reporter gene assay relative to mifepristone; type: cell-based; details: human LNCaP cells expressing AR
T6 sequence (P10275 whole entry): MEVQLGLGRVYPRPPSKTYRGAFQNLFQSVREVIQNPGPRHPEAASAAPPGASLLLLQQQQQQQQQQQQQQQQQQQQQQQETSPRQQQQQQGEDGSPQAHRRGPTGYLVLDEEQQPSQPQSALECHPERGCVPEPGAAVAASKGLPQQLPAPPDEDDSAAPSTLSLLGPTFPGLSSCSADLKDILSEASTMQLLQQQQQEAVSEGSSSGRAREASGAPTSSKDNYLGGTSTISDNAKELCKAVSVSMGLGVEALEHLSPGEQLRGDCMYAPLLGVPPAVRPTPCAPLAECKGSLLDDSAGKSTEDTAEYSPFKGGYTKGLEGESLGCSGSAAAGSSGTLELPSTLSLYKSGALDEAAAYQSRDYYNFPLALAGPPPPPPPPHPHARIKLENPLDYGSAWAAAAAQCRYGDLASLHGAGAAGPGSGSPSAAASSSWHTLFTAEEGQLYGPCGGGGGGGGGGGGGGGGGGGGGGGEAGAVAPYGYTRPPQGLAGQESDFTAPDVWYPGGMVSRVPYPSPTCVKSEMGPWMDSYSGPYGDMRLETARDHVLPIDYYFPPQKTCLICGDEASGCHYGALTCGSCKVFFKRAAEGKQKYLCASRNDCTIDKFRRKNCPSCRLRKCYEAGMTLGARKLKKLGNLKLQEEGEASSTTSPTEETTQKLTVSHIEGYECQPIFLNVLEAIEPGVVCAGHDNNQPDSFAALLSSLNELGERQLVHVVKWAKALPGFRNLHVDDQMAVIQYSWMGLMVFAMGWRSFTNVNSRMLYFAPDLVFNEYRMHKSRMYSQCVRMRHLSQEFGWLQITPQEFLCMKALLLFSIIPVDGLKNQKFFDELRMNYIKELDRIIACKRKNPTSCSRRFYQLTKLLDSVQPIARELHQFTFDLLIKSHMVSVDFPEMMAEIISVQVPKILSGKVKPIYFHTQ

[19] = target: T5, Glucocorticoid receptor; experiment: Agonist activity at human GR expressed in CHO-K1 cells incubated for 20 hrs by luciferase reporter gene assay; type: cell-based
[20] = target: T7, Androgen receptor (Homo sapiens, UniProt P10275); experiment: Agonist activity at AR (unknown origin) expressed in human LNCaP cells incubated for 20 hrs by luciferase reporter gene assay; type: cell-based
T7 sequence (P10275 whole entry): T6 sequence (P10275 whole entry)

Sequence of Cytochrome P450 2C9 (P11712 whole entry): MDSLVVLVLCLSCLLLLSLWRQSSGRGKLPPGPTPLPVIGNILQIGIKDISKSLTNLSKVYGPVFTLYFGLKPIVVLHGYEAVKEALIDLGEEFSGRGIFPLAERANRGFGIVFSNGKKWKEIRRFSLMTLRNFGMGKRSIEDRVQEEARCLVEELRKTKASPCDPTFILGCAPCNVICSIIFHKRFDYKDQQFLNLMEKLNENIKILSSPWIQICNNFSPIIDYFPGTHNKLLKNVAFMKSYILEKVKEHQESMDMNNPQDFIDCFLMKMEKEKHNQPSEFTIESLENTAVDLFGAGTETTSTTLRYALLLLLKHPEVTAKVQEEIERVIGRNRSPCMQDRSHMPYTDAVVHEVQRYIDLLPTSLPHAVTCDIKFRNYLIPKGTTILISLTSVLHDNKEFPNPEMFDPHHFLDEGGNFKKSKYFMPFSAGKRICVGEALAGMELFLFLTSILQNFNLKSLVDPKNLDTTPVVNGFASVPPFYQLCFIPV

Work on CC#C[C@]1(O)CC[C@H]2[C@@H]3CCC4=CC(=O)CCC4=C3[C@@H](c3ccc(N(C)C)cc3)C[C@@]21C [MIFEPRISTONE] yielded an IC50 [1] of 4.9 µM, an IC50 [2] of 0.0219 µM and a Cmax [3] of 0.024 µg/mL. It also gave an Emax at 20 h [4] of 3.1%, an IC50 [5] of 0.0109 to 0.0257 µM and an IC50 [6] of 0.0326 µM. The IC50 [7] was 0.0202 µM, the AUC [8] was 0.085 µg·h/mL and the Vd [9] was 4.1 L/kg. It also gave a clearance [10] of 3.7 L/h/kg, a bioavailability [11] of 6.4% and a half-life [12] of 1.6 h. For the same compound, the IC50 [13] was 0.0139 µM, the IC50 [14] was 0.0197 µM and the IC50 [15] was 1.5 µM.

In the case of Nc1ccn([C@@H]2O[C@H](CO)[C@@H](O)C2(F)F)c(=O)n1, the TGI [16] is reported as “Active”.

Compound COC(C)(C)C#C[C@]1(O)CC[C@H]2[C@@H]3CCC4=CC(=O)CC[C@@H]4[C@H]3[C@@H](c3ccc(N(C)C)cc3)C[C@@]21C has a Cmax [3] of 0.295 µg/mL, an Emax at 20 h [4] of 1.7% and an AUC [8] of 0.544 µg·h/mL. The Vd [9] was 7.2 L/kg, the IC50 [17] was 0.0146 µM and the clearance [10] was 5 L/h/kg. It also gave an Emax at 20 h [18] of 10.6%, a bioavailability [11] of 54% and a half-life [12] of 2.4 h. The EC50 [19] was > 2.5 µM and the EC50 [20] was > 2.5 µM.

Source: ChEMBL document CHEMBL4145686, “Discovery of a Potent and Selective Steroidal Glucocorticoid Receptor Antagonist (ORIC-101)” (J Med Chem, 2018)
